# Data published in patent US9328138B2 (priority 2011, dated 2016).
# Assays:
# [1] = target: T1, HCV genotype 1b (BK) NS3 modified enzyme with a R155K mutation (Hepatitis C virus genotype 1b, UniProt P26663, R1181K); assay: HCV NS3 protease time-resolved fluorescence (TRF) assay, genotype 1b R155K; assay type: biochemical; conditions: Ki 1b R155K
# T1 construct: HCV genotype 1b (BK) NS3 modified enzyme
# Summary of the method: (§1)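 IC50 values derive from 4-parameter fitting of TRF signal after a 6 h room-temperature cleavage of 25 nM peptide substrate by NS3/NS4A that had been pre-incubated 10 min with compound.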
# [2] = target: HCV NS3 protease genotype 3a (3A-1) (Hepatitis C virus genotype 3a, UniProt Q81258); assay: HCV NS3 protease time-resolved fluorescence (TRF) assay, genotype 3a; assay type: biochemical; conditions: Ki 3a
# Summary of the method: as §1
# [3] = first of two values printed in the cell (not explained)
# [4] = second of two values printed in the cell (not explained)
# [5] = genotype 1b (BK) NS3 R155K, single value
SMILES,"Ki [1, 3] [nM]","Ki [1, 4] [nM]",Ki [2] [nM],"Ki [1, 5] [nM]"
"C=C[C@@H]1CC1(NC(=O)[C@@H]1C[C@@H]2CN1C(=O)[C@H](C1CCCCC1)NC(=O)O[C@@H]1C[C@H]1CCCCCc1c(nc3ccccc3c1OC1CCN(CCOC(F)(F)F)CC1)O2)C(=O)NS(=O)(=O)C1(C)CC1 (stereo partly drawn) [Example 262, potassium {[(1R,2S)-1-({[(1aR,5S,8S,10R,22aR)-5-cyclohexyl-3,6-dioxo-17-({1-[2-(trifluoromethoxy)ethyl]piperidin-4-yl}oxy)-1,1a,3,4,5,6,9,10,18,19,20,21,22,22a-tetradecahydro-8H-7,10-methanocyclopropa[18,19][1,10,3,6]dioxadiazacyclononadecino[11,12-b]quinolin-8-yl]carbonyl}amino)-2-ethenylcyclopropyl]carbonyl}[(1-methylcyclopropyl)sulfonyl]azanide]",0.018,0.12,1.2,–
"C=C[C@@H]1C[C@]1(NC(=O)[C@@H]1C[C@@H]2CN1C(=O)[C@H](C1CCCC1)NC(=O)O[C@@H]1CCC[C@H]1CCCCCc1c(nc3ccccc3c1O)O2)C(=O)NS(=O)(=O)C1CC1 [Example 34, (3aR,7S,10S,12R,24aR)-7-cyclo pentyl-N-{(1R,2S)-1-[(cyclopropylsulfonyl)carbamoyl]-2-ethenylcyclopropyl}-19-hydroxy-5,8-dioxo-1,2,3,3a,5,6,7,8,11,12,20,21,22,23,24,24a-hexadecahydro-10H-9,12-methanocyclopenta [18,19][1,10,3,6]dioxadiazacyclononadecino [11,12-b]quinoline-10-carboxamide]",–,–,1.8,0.1
"C=C[C@@H]1C[C@]1(NC(=O)[C@@H]1C[C@@H]2CN1C(=O)[C@H](C1CCCC1)NC(=O)O[C@@H]1CCC[C@H]1CCCCCc1c(nc3ccccc3c1OCC)O2)C(=O)NS(=O)(=O)C1CC1 [Example 24, (3aR,7S,10S,12R,24aR)-7-cyclopentyl-N-{(1R,2S)-1-[(cyclopropylsulfonyl)carbamoyl]-2-ethenylcyclopropyl}-19-ethoxy-5,8-dioxo-1,2,3,3a,5,6,7,8,11,12,20,21,22,23,24,24a-hexadecahydro-10H-9,12-methanocyclopenta[18,19][1,10,3,6]dioxadiazacyclononadecino[11,12-b]quinoline-10-carboxamide]",–,–,9.1,0.39
"C=C[C@@H]1C[C@]1(NC(=O)[C@@H]1C[C@@H]2CN1C(=O)[C@H](C(C)(C)C)NC(=O)O[C@@H]1C[C@H]1CCCCCc1c(nc3ccccc3c1OCCCN1CCCCC1)O2)C(=O)NS(=O)(=O)C1(C)CC1 [Example 115, (1aR,5S,8S,10R,22aR)-5-tert-butyl-N-[(1R,2S)-2-ethenyl-1-{[(1-methylcyclopropyl)sulfonyl]carbamoyl}cyclopropyl]-3,6-dioxo-17-[3-(piperidin-1-yl)propoxy]-1,1a,3,4,5,6,9,10,18,19,20,21,22,22a-tetradeca hydro-8H-7,10-methano cyclopropa[18,19][1,10,3,6] dioxadiazacyclononadecino [11,12-b]quinoline-8-carboxamide]",–,–,0.25,0.057
"C=C[C@@H]1C[C@]1(NC(=O)[C@@H]1C[C@@H]2CN1C(=O)[C@H](C(C)(C)C)NC(=O)O[C@@H]1C[C@H]1CCCCCc1c(nc3ccccc3c1OC1CC3CCC(C1)N3CCOC)O2)C(=O)NS(=O)(=O)C1(C)CC1 (single isomer, unassigned) [Example 276]",0.013,0.019,0.14,–
"C=CC1C[C@]1(NC(=O)[C@@H]1C[C@@H]2CN1C(=O)[C@H](C1CCCC1)NC(=O)O[C@@H]1CCC[C@H]1CC/C=C/Cc1c(nc3ccccc3c1OCCCN1CCN(C)CC1)O2)C(=O)NS(=O)(=O)C1CC1 (stereo partly drawn) [Example 88, (3aR,7S,10S,12R,21E,24aS)-7-cyclo pentyl-N-{(1R,2S)-1-[(cyclo-propylsulfonyl)carbamoyl]-2-ethenylcyclopropyl}-19-[3-(4-methylpiperazin-1-yl)propoxy]-5,8-dioxo-1,2,3,3a,5,6,7,8,11,12,20,23,24,24a-tetradecahydro-10H-9,12-methano-cyclopenta[18,19][1,10,3,6]dioxa diazacyclononadecino[11,2-b]quinoline-10-carboxamide]",–,–,4.4,0.34
"C=C[C@@H]1C[C@]1(NC(=O)[C@@H]1C[C@@H]2CN1C(=O)[C@H](C(C)(C)C)NC(=O)O[C@@H]1C[C@H]1CCCCCc1c(nc3ccccc3c1OC1CC3CCC(C1)N3CC)O2)C(=O)NS(=O)(=O)C1(C)CC1 (single isomer, unassigned) [Example 277]",0.008,0.013,0.078,–
"C=C[C@@H]1C[C@]1(NC(=O)[C@@H]1C[C@@H]2CN1C(=O)[C@H](C1CCCCC1)NC(=O)O[C@@H]1C[C@H]1CCCCCc1c(nc3c(F)cccc3c1OC1CCN(C)CC1)O2)C(=O)NS(=O)(=O)C1(C)CC1 [Example 286, (1aR,5S,8S,10R,22aR)-5-cyclohexyl-N-[(1R,2S)-2-ethenyl-1-{[(1-methylcyclopropyl)sulfonyl]carbamoyl}cyclopropyl]-13-fluoro-17-[(1-methylpiperidin-4-yl)oxy]-3,6-dioxo-1,1a,3,4,5,6,9,10,18,19,20,21,22,22a-tetradecahydro-8H-7,10-methanocyclopropa[18,19][1,10,3,6]dioxadiazacyclononadecino[11,12-b]quinoline-8-carboxamide]",0.022,0.094,0.515,–
"C=C[C@@H]1C[C@]1(NC(=O)[C@@H]1C[C@@H]2CN1C(=O)[C@H](C(C)(C)C)NC(=O)O[C@@H]1C[C@H]1CCCCCc1c(nc3ccccc3c1OC1C3COCC1CN(C(=O)OC(C)(C)C)C3)O2)C(=O)NS(=O)(=O)C1(C)CC1 (single isomer, unassigned) [Example 254]",0.116,2.3,47.5,–
"C=C[C@@H]1C[C@]1(NC(=O)[C@@H]1C[C@@H]2CN1C(=O)[C@H](C1CCCC1)NC(=O)O[C@@H]1CCC[C@H]1CC/C=C/Cc1c(nc3ccccc3c1OCCCCO)O2)C(=O)NS(=O)(=O)C1CC1 [Example 68, (3aR,7S,10S,12R,21E,24aS)-7-cyclopentyl-N-{(1R,2S)-1-[(cyclopropylsulfonyl)carbamoyl]-2-ethenylcyclopropyl}-19-(4-hydroxybutoxy)-5,8-dioxo-1,2,3,3a,5,6,7,8,11,12,20,23,24,24a-tetradecahydro-10H-9,12-methanocyclopenta[18,19][1,10,3,6]dioxadiazacyclononadecino[11,12-b]quinoline-10-carboxamide]",–,–,1.6,0.16
"C=C[C@@H]1C[C@]1(NC(=O)[C@@H]1C[C@@H]2CN1C(=O)[C@H](C1CCCCC1)NC(=O)O[C@@H]1C[C@H]1CCCCCc1c(nc3ccccc3c1OCCCN1CCCOCC1)O2)C(=O)NS(=O)(=O)C1(C)CC1 [Example 168, (1aR,5S,8S,10R,22aR)-5-cyclohexyl-N-[(1R,2S)-2-ethenyl-1-{[(1-methylcyclopropyl)sulfonyl]carbamoyl}cyclopropyl]-17-[3-(1,4-oxazepan-4-yl)propoxy]-3,6-dioxo-1,1a,3,4,5,6,9,10,18,19,20,21, 22,22a-tetradeca hydro-8H-7,10-methanocyclopropa[18,19][1,10,3,6] dioxadiazacyclononadecino[11,12-b] quinoline-8-carboxamide]",–,–,1.3,0.078
"C=C[C@@H]1C[C@]1(NC(=O)[C@@H]1C[C@@H]2CN1C(=O)[C@H](C(C)(C)C)NC(=O)O[C@@H]1C[C@H]1CCCCCc1c(nc3ccccc3c1OC1CC3CCC(C1)N3CCOC)O2)C(=O)NS(=O)(=O)C1(C)CC1 (single isomer, unassigned) [Example 280]",0.024,0.28,4.65,–
